Measured values published in ChEMBL document CHEMBL1137642, “Growth and drug resistance phenotypes resulting from cytomegalovirus DNA polymerase region III mutations observed in clinical specimens” (Antimicrob Agents Chemother, 2007).

Key:
Human betaherpesvirus 5 [1] = test: Antiviral activity against Cytomegalovirus CMV T2784 with pol A809V UL97 C592G double mutant infected in HFF cells by SEAP reporter gene assay; assay type: functional, organism-based; conditions: Human betaherpesvirus 5, T2784, HFF
Human betaherpesvirus 5 [2] = test: Antiviral activity against Cytomegalovirus CMV T2542 with pol T813S mutant infected in HFF cells by SEAP reporter gene assay; assay type: functional, organism-based; conditions: Human betaherpesvirus 5, T2542, HFF
Human betaherpesvirus 5 [3] = test: Drug resistance, ratio of EC50 for Cytomegalovirus CMV T2417 pol A809V mutant to EC50 for Cytomegalovirus CMV T2211 by plaque reduction assay; assay type: functional
Human betaherpesvirus 5 [4] = test: Drug resistance, ratio of EC50 for Cytomegalovirus CMV pol A384P mutant to EC50 for Cytomegalovirus CMV T2211 by SEAP reporter gene assay; assay type: functional
Human betaherpesvirus 5 [5] = test: Drug resistance, ratio of EC50 for Cytomegalovirus CMV T2798 with pol T813S UL97 C592G double mutant to EC50 for Cytomegalovirus CMV T2211 by SEAP reporter gene assay; assay type: functional
Human betaherpesvirus 5 [6] = test: Drug resistance, ratio of EC50 for Cytomegalovirus CMV T2817 with pol G841A UL97 C592G double mutant to EC50 for Cytomegalovirus CMV T2211 by SEAP reporter gene assay; assay type: functional
Human betaherpesvirus 5 [7] = test: Antiviral activity against Cytomegalovirus CMV T2211 infected in HFF cells by SEAP reporter gene assay; assay type: functional, organism-based; conditions: Human betaherpesvirus 5, T2211, HFF
Human betaherpesvirus 5 [8] = test: Antiviral activity against Cytomegalovirus CMV T2798 with pol T813S UL97 C592G double mutant infected in HFF cells by SEAP reporter gene assay; assay type: functional, organism-based; conditions: Human betaherpesvirus 5, T2798, HFF
Human betaherpesvirus 5 [9] = test: Antiviral activity against Cytomegalovirus CMV T2420 with pol G841A mutant infected in HFF cells by SEAP reporter gene assay; assay type: functional, organism-based; conditions: Human betaherpesvirus 5, T2420, HFF
Human betaherpesvirus 5 [10] = test: Antiviral activity against Cytomegalovirus CMV T2417 with pol A809V mutant infected in HFF cells by SEAP reporter gene assay; assay type: functional, organism-based; conditions: Human betaherpesvirus 5, T2417, HFF
Human betaherpesvirus 5 [11] = test: Antiviral activity against Cytomegalovirus CMV T2258 with UL97 C592G mutant infected in HFF cells by SEAP reporter gene assay; assay type: functional, organism-based; conditions: Human betaherpesvirus 5, T2258, HFF
Human betaherpesvirus 5 [12] = test: Drug resistance, ratio of EC50 for Cytomegalovirus CMV pol T821I mutant to EC50 for Cytomegalovirus CMV T2211 by SEAP reporter gene assay; assay type: functional
Human betaherpesvirus 5 [13] = test: Drug resistance, ratio of EC50 for Cytomegalovirus CMV T2784 with pol A809V UL97 C592G double mutant to EC50 for Cytomegalovirus CMV T2211 by SEAP reporter gene assay; assay type: functional
Human betaherpesvirus 5 [14] = test: Antiviral activity against Cytomegalovirus CMV 2817 with pol G841A UL97 C592G double mutant infected in HFF cells by SEAP reporter gene assay; assay type: functional, organism-based; conditions: Human betaherpesvirus 5, T2817, HFF
Human betaherpesvirus 5 [15] = test: Drug resistance, ratio of EC50 for Cytomegalovirus CMV T2420 pol G841A mutant to EC50 for Cytomegalovirus CMV T2211 by SEAP reporter gene assay; assay type: functional
Human betaherpesvirus 5 [16] = test: Drug resistance, ratio of EC50 for Cytomegalovirus CMV T2417 pol A809V mutant to EC50 for Cytomegalovirus CMV T2211 by SEAP reporter gene assay; assay type: functional
Human betaherpesvirus 5 [17] = test: Drug resistance, ratio of EC50 for Cytomegalovirus CMV […] pol T813S mutant to EC50 for Cytomegalovirus CMV T2211 by SEAP reporter gene assay; assay type: functional

With `Nc1nc2c(ncn2COC(CO)CO)c(=O)[nH]1` [GANCICLOVIR] the EC50 (Human betaherpesvirus 5 [1]) was 6.1 µM, the EC50 (Human betaherpesvirus 5 [2]) was 2.7 µM and the “fold change (FC)” value (Human betaherpesvirus 5 [3]) was 2.6. For the same compound, the “fold change (FC)” value (Human betaherpesvirus 5 [4]) was 5, the “fold change (FC)” value (Human betaherpesvirus 5 [5]) was 2 and the “fold change (FC)” value (Human betaherpesvirus 5 [6]) was 2. The EC50 (Human betaherpesvirus 5 [7]) was 1.1 µM, the EC50 (Human betaherpesvirus 5 [8]) was 6.6 µM and the EC50 (Human betaherpesvirus 5 [9]) was 3.5 µM. For the same compound, the EC50 (Human betaherpesvirus 5 [10]) was 2.6 µM, the EC50 (Human betaherpesvirus 5 [11]) was 3.9 µM and the “fold change (FC)” value (Human betaherpesvirus 5 [12]) was 5. For the same compound, the “fold change (FC)” value (Human betaherpesvirus 5 [13]) was 2 and the EC50 (Human betaherpesvirus 5 [14]) was 8.4 µM.
For `O=C(O)P(=O)(O)O` [FOSCARNET], the EC50 (Human betaherpesvirus 5 [1]) was 137 µM, the “fold change (FC)” value (Human betaherpesvirus 5 [15]) was 3 and the EC50 (Human betaherpesvirus 5 [2]) was 199 µM. For the same compound, the “fold change (FC)” value (Human betaherpesvirus 5 [3]) was 6.3, the EC50 (Human betaherpesvirus 5 [7]) was 41 µM and the “fold change (FC)” value (Human betaherpesvirus 5 [16]) was 3. For the same compound, the EC50 (Human betaherpesvirus 5 [8]) was 204 µM, the EC50 (Human betaherpesvirus 5 [9]) was 176 µM and the “fold change (FC)” value (Human betaherpesvirus 5 [17]) was 3. The EC50 (Human betaherpesvirus 5 [10]) was 137 µM, the EC50 (Human betaherpesvirus 5 [11]) was 44 µM and the EC50 (Human betaherpesvirus 5 [14]) was 213 µM.
`Nc1ccn(C[C@@H](CO)OCP(=O)(O)O)c(=O)n1.O.O` [CIDOFOVIR] was tested, and the EC50 (Human betaherpesvirus 5 [1]) was 0.45 µM, the EC50 (Human betaherpesvirus 5 [2]) was 0.6 µM and the “fold change (FC)” value (Human betaherpesvirus 5 [3]) was 1.6. It also gave an EC50 (Human betaherpesvirus 5 [7]) of 0.22 µM, an EC50 (Human betaherpesvirus 5 [8]) of 0.37 µM and an EC50 (Human betaherpesvirus 5 [9]) of 0.58 µM. It also gave an EC50 (Human betaherpesvirus 5 [10]) of 0.42 µM, an EC50 (Human betaherpesvirus 5 [11]) of 0.27 µM and an EC50 (Human betaherpesvirus 5 [14]) of 0.67 µM.
